Read-outs that look alike come from different tables or passages of the source.
Columns and labels:
[1] = Rat CNS exposure (plasma and CNS tissue concentration, LC-MS/MS); type: in vivo; conditions: 10 mg/kg
Description: Test subjects (Sprague-Dawley rats) were housed in sterile vivarium with controlled temperature, humidity and 12-hour light-dark cycle (7:00 lights-on and 19:00 lights-off). Following procurement, rats were acclimated to the vivarium facility for 7 days prior to study day-1 with ad libitum access to both diet and water. Bedding was changed twice weekly. […] On study day-1 rats were administered vehicle or Hsp90 inhibitor formulation. Following administrations of test article formulation, blood and CNS tissue was collected at 6.5 h post-dosed by a necropsy procedure. In detail, CNS tissue was isolated from the Vehicle and dose groups, divided into 2 mid-sagittal sections, placed in tarred 1 mL micro-centrifuge tubes, weighed and immediately frozen on dry ice. Blood was isolated by a cardiac puncture procedure from the Vehicle and Hsp90 inhibitor dose groups. From these samples, plasma was isolated in plasma separator tubes containing ethylenediaminetetraacetic acid as the anticoagulant. HSP90 inhibitor concentrations in plasma and CNS tissue were determined using LC-MS/MS based methods following a 60% acetonitrile extraction.

human full length Hsp90 [2] = target: T1, human full length Hsp90 (Homo sapiens, UniProt P07900); experiment: Fluorescence polarization Hsp90 competitive binding assay (GM-FITC displacement); conditions: for inhibition at 1 µM: compound at 1 μM, read-out: Biochemical Potency % Inhibition at 1 μM; for inhibition at 10 µM: compound at 10 μM, read-out: Biochemical Potency % Inhibition at 10 μM
T1 construct: amino acid residues 1 to 732 of human Hsp90 (GenBank: BC121062.2); made in house; host or cells: E. coli BL21DE3 (pET15b)
Description: Hsp90 binding assays was performed generally according to the procedure described in J. Biomol. […] Hsp90 inhibitors were solubilized in DMSO at a stock concentration of 50 mM. […] Eighty five μl of binding assay buffer (20 mM HEPES, pH-7.5, 50 mM KCl, 5 mM MgCl2, 20 mM sodium molybdate, 0.01% NP-40, 2 mM DTT, and 0.1 mg/ml BSA) was added to the wells of a 96 well black plate placed on ice. […] Next, 10 μl either binding assay buffer alone (control) or human full length Hsp90 protein diluted in the binding assay buffer was added to achieve a final concentration of 50 nM. The plates were incubated at 4° C. on a plate shaker for 24 h. Two μl of 50× GM-FITC (9 nM final) in DMSO was added to all wells and the plate was incubated at ambient temperature for 1 h with shaking. Fluorescence polarization readings were taken in duplicate at excitation and emission wavelengths of 480 nm and 500 nm respectively. Specific binding was calculated by subtracting polarization values in the presence of Hsp90 from those in the absence of Hsp90. To calculate percent inhibition the specific binding values obtained for GA-FITC in the presence of compound were compared to values for GA-FITC in the absence of compound (DMSO only).

human full length Hsp90 [3] = target: T1, human full length Hsp90; experiment: Determination of the Kd value of FITC-labeled geldanamycin for Hsp90 (fluorescence polarization); type: binding; conditions: with or without 50 nM Hsp90
Description: Eighty five micro liters (μl) of a binding assay buffer (20 mM HEPES, pH 7.5, 50 mM KCl, 5 mM MgCl2, 20 mM sodium molybdate, 0.01% NP-40, 2 mM DTT, and 0.1 mg/mL BSA) were added to a 96 well black plate placed on ice. DMSO (3 μl) was added to the wells, followed by the addition of either 10 μl human full length HSP90 (50 nM final concentration) diluted in the binding assay buffer or 10 μl of the buffer alone. The plates were incubated at 4° C. on a plate shaker for 24 hours. Two μl of 50× GA-FITC titrate within a final range of 160 nM to 0.3125 nM in DMSO were added to all wells, followed by incubation at ambient temperature for 1 h with agitation. Fluorescence polarization readings were taken at excitation and emission wavelengths of 480 and 500 nm respectively. Measurements were performed in duplicate. Specific binding was calculated by subtracting polarization values in the presence of
Hsp90 from those in the absence of Hsp90. GA-FITC Kd values were calculated using Prism software (GraphPad Software, Inc., San Diego, Calif.).
A 10 point concentration response curve for binding of GM-FITC to Hsp90 was obtained. The concentration of GM-FITC used ranged from 160 nM to 0.3125 nM, which produced a saturable concentration response curve. […] The value of binding maximum (Bmax) was determined to be 188 nM.

[4] = Table 1, 50 nM Hsp90, 9 nM GM-FITC, read-out: Biochemical Potency IC50
[5] = Table II, binding affinities ranked by potency
[6] = Table II, binding affinities ranked by potency, read-out: IC50

Compound	partitioning CNS versus plasma [1]	IC50 (human full length Hsp90 [2]; [4])	Ki (human full length Hsp90 [2]; [5])	IC50 (human full length Hsp90 [2]; [6])	binding maximum (Bmax) (human full length Hsp90 [3])	Kd (human full length Hsp90 [3]; 160 nM to 0.3125 nM probe)	inhibition at 1 µM (human full length Hsp90 [2])	inhibition at 10 µM (human full length Hsp90 [2])
Cc1cn(-c2cc(F)c(C(N)=O)c(N[C@H]3CCOC3)c2)c2c1C(=O)CC(C)(C)C2 [SNX-0723, reference compound]	selectively partitions into the CNS compartment compared to plasma	–	–	–	–	–	–	–
CCCN(Cc1ncc(C)c(OC)c1C)c1cc(Cl)nc(N)n1 [SBI-0639350, 6-Chloro-N4-((4-methoxy-3,5-dimethylpyridin-2-yl)methyl)-N4-propylpyrimidine-2,4-diamine]	–	1100 nM	275 nM	1100 nM	–	–	–	–
CO[C@H]1/C=C\C=C(/C)C(=O)NC2=CC(=O)C(NCCCCCCNC(=S)Nc3ccc(-c4c5ccc(=O)cc-5oc5cc(O)ccc45)c(C(=O)O)c3)=C(C[C@@H](C)C[C@H](OC)[C@H](O)[C@@H](C)/C=C(\C)[C@@H]1OC(N)=O)C2=O [GA-FITC]	–	–	–	–	188 nM	3.1 nM	–	–
Cc1cnc(CNc2cc(Cl)nc(N)n2)c(C)c1Br [SBI-0639218, N4-((4-Bromo-3,5-dimethylpyridin-2-yl)methyl)-6-chloropyrimidine-2,4-diamine]	–	–	368 nM	1470 nM	–	–	44%	94%
Cc1cnc(CN(CCc2ccc(Cl)cc2)c2cc(Cl)nc(N)n2)c(C)c1Cl [SBI-0640610, 6-Chloro-N4-((4-chloro-3,5-dimethylpyridin-2-yl)methyl)-N4-(4-chlorophenethyl)pyrimidine-2,4-diamine]	–	194 nM	49 nM	194 nM	–	–	–	–
6-Chloro-N4-((4-methoxy-3,5-dimethylpyridin-2-yl)methyl)-N4-(3-methoxyphenethyl)pyrimidine-2,4-diamine [SBI-0640606]	–	432 nM	108 nM	432 nM	–	–	–	–
COc1c(C)cnc(CN(CCc2ccc(Cl)cc2)c2cc(Cl)nc(N)n2)c1C [SBI-0640608, 6-Chloro-N4-(4-chlorophenethyl)-N4-((4-methoxy-3,5-dimethylpyridin-2-yl)methyl)pyrimidine-2,4-diamine]	–	311 nM	78 nM	311 nM	–	–	–	–
6-Chloro-N4-((4-methoxy-3,5-dimethylpyridin-2-yl)methyl)-N4-(4-methoxyphenethyl)pyrimidine-2,4-diamine [SBI-0640605]	–	350 nM	88 nM	350 nM	–	–	–	–
COc1ccc(CNc2cc(C(F)(F)F)nc(N)n2)c(OC)c1OC [SBI-0630180]	–	–	> 2500 nM	> 10000 nM	–	–	–	4%
COc1c(C)cnc(CN(CCc2cccc(Br)c2)c2cc(Cl)nc(N)n2)c1C [SBI-0640613, N4-(3-Bromophenethyl)-6-chloro-N4-((4-methoxy-3,5-dimethylpyridin-2-yl)methyl)pyrimidine-2,4-diamine]	–	97 nM	24 nM	97 nM	–	–	–	–
COc1cc(CNc2cc(Cl)nc(N)n2)cc(OC)c1OC [SBI-0206664]	–	–	> 2500 nM	> 10000 nM	–	–	–	25%
COc1c(C)cnc(CNc2nc(N)nc3[nH]cnc23)c1C [SBI-0639182]	–	–	> 2500 nM	> 10000 nM	–	–	4%	19%

Reference: patent publication US20160311795A1, “PYRIMIDINE DIAMINE DERIVATIVES AS INHIBITORS OF CYTOSOLIC HSP90” (CALASIA PHARMACEUTICALS, INC., priority 2012, published 2016)
